# Reference: ChEMBL document CHEMBL1150035, “Potent, non-peptidic oxytocin receptor antagonists from a natural source” (Bioorg Med Chem Lett, 1993)
# What was measured:
# Oxytocin receptor = target: T1, Oxytocin receptor (Rattus norvegicus, UniProt P70536); test: Compound was tested for its ability to inhibit binding of Oxytocin to its Oxytocin receptor in rat uterine tissue
# T1 sequence (P70536 whole entry): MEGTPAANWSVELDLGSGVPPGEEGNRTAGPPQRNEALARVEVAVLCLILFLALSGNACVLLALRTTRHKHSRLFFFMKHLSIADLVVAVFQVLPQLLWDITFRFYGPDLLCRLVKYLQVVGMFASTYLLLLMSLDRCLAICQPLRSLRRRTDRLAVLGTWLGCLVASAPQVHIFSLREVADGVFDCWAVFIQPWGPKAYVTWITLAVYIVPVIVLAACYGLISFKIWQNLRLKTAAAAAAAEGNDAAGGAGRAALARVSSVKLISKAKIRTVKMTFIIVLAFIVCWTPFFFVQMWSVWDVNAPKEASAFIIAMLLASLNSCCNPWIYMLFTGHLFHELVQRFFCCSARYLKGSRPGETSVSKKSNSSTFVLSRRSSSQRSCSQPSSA
# [1] = Compound was tested for its ability to inhibit binding of arginine vasopressin to Vasopressin receptor (V1 subtype)
SMILES,IC50 (Oxytocin receptor) [µM],IC50 [1] [µM]
COc1c([C@H](CC(C)C)OC(C)=O)ccc2c1C(=O)OCc1cc(C)cc(OC(C)=O)c1O2,5,–
COc1c([C@H](CC(C)C)OC(C)=O)ccc2c1C(=O)OCc1cc(C)cc(O)c1O2,8.4,> 100
COc1c(C(=O)CC(C)C)ccc2c1C(=O)OCc1cc(C)cc(O)c1O2,> 100,–
COc1cc(C)cc2c1Oc1ccc([C@H](CC(C)C)OC(C)=O)c(OC)c1C(=O)OC2,21,> 100
COc1c([C@H](CC(C)C)OC(C)=O)ccc2c1C(=O)Oc1cc(C)cc(C=O)c1O2,> 100,–
COc1cc(C)cc2c1Oc1ccc([C@@H](O)CC(C)C)c(OC)c1C(=O)OC2,> 100,–
COc1c([C@@H](O)CC(C)C)ccc2c1C(=O)OCc1cc(C)cc(O)c1O2 [PENICILLIDE],67,–
